Data taken from US6893829B2, “Human leukocyte 12-lipoxygenase and its role in the pathogenesis of disease states” (City of Hope, priority 1992, dated 2005).
Blank lines part the entries; values can stand above or below the compound they belong to.

What was measured:
ERK = ERK activity in CHO-AT1a cells; format: cell-based, Chinese hamster; conditions: 12-HETE 10^−7M, peaks at 5 minutes and 3-4.5 hours
Experimental: ERK activity was evaluated by the substrate-SDS-polyacrylamide gel method described in Anal. Biochem., 183:139-143 (1989). Confluent cells in […] were made quiescent in serum-free medium and then treated with agonists for various time periods. The cells were then lysed in lysis buffer (1% NP40, 1% sodium deoxycholate, 0.1% SDS, 100 mM NaCl, 50 mM Tris, 10 mM EDTA, 1 mM EGTA, aprotinin, […], 0.1 mM PMSF and 1 mM sodium orthovanadate, pH 7.4). Lysates were centrifuged to pellet nuclei and the cell extracts ([…]) were subjected to electrophoresis on SDS-polyacrylamide gels (10%) containing myelin basic protein (0.5 mg/ml) as an ERK substrate. The SDS was then washed, followed by denaturation, renaturation and protein phosphorylation on the gel with [^32P] ATP.
(§1) It has been discovered that the administration of AII results in biphasic activation of MAP kinase (all of the MAP kinase experiments were conducted in CHO-AT1a cells—AII receptor AT1a cDNA transfected Chinese hamster ovary cells).

JNK = JNK activity in CHO-AT1a cells; format: cell-based, Chinese hamster
Experimental: The plasmid pGEX-cJun 1/79 (Dept. Pharmacol. UCSD, La Jolla) is a GST-cJun (1-79) expression vector encoding amino acids (1-79) of cJun. The GST fusion protein expression vector was transformed into E. Coli. Protein was induced with 0.1 mM IPTG and purified by affinity binding to glutathione-agarose beads. Unstimulated or stimulated cells were lysed into WCEB (25 mM HEPES, pH 7.7, 03.M Nacl, 15 mM MgCl2, 02.mM EDTA and 0.1% triton X-100). About 50 μg protein extract was incubated with GST-cJun+GSH agarose overnight at 4° C. Phosphorylation was carried out at 30° C. for 20 minutes in the presence of 20 mM HEPES, pH 7.5, 20 mM b-glycerophosphate, 10 mM p-nitrophenolphosphate, 10 mM MgCl2, 10 mM DDT, 50 μg Na3VO4, 20 μM ATP (cold) and about 0.5 μl of new gamma ^32P-ATP. After boiling with electrophoresis sample buffer, the supernatants were analyzed on 12% SDS-PAGE. JNK activity was also measured by immunoprecipitation method using an anti-JNK antibody (Parmingen Co., San Diego) and then activities were measured using 2 μg of GST-cJun (1-79) as substrate as described in Cell, 81:1147-1157 (1995).
as §1

JAK1 and JAK2 = experiment: JAK activity in CHO-AT1a cells (phosphotyrosine immunoprecipitation, JAK1/JAK2 immunoblot); format: cell-based, Chinese hamster; conditions: 12-HETE 10^−7M, 10 hours
Experimental: It has further been discovered that 12-HETE induces stimulation of JAK activity. CHO-AT1a cells were treated with 12-HETE (10^−7M) for 10 hours, immunoprecipitated with a phosphotyrosine antibody and immunoblotted using specific JAK1 and JAK2 antibodies.

[1] = tested on: VEGF protein in MCF-7 cells; experiment: VEGF protein expression in breast cancer cells (immunoblot); format: cell-based, human
Experimental: FIG. 8 illustrates the dose-dependent effect of platelet-derived growth factor (PDGF) on vascular endothelial growth factor (VEGF) protein (42 kD) expression in MCF-7 breast cancer cells. Nearly confluent MCF-7 cells were serum starved for 24 hours by placing in DME medium+0.4% FCS and 0.2% BSA. This medium was then freshly replaced and the cells incubated for another 24 hours with PDGF. At the end of the incubation, the cell monolayers were washed with ice-cold PBS, scraped into PBS and pelleted by centrifugation. The cell pellets were then lysed and equal amounts of protein (50 μg) subjected to electrophoresis and immunoblotting to detect VEGF using a specific antibody from Santa Cruz Biotechnology. Detection was by a chemiluminiscent technique.
FIG. 9 illustrates the effect of epidermal growth factor (EGF) and the 12-lipoxygenase product 12-HETE on VEGF protein expression in the MCF-7 breast cancer cell line MCF-7. MCF-7 cells were treated with EGF and 12-HETE for 24 hours and VEGF protein identified as described in the legend to FIG. 8.

[2] = tested on: VEGF in vascular smooth muscle cells (VSMC); experiment: VEGF protein, mRNA and secretion in VSMC (Western, Northern, EIA); format: cell-based, Porcine and human
Experimental: In addition to the work reflected in FIGS. 8-10, it has now been discovered that AII, 12-HETE and hyperglycemia (HG) increase VEGF production in vascular smooth muscle cells (VSMC). Porcine and human VSMC were cultured for at least two passages under normal glucose (NG, 5.5 mM) or under HG conditions. VEGF protein expression was determined by Western blotting and VEGF mRNA by Northern blots. HG alone increased the level of VEGF mRNA (2.8-fold) and protein (3.2-fold). […] In addition, HG increased the secretion of VEGF into the medium as measured by a specific EIA (56.2±4 ng/ml NG vs 73±5 HG, p<0.02).

RINm5F cells = experiment: DNA synthesis (3H-thymidine incorporation) in RINm5F cells; format: cell-based, rat; conditions: 24 hours, 12-HETE 10^−9M
Experimental: FIG. 11 illustrates the effects of 12-LO products on DNA synthesis in the insulin-producing rat beta cell line, RINm5F. DNA synthesis was studied using ^3H-thymidine incorporation (luCi/ml) added for the last six hours (18-24 hours of experiment). The LO products were added to the cells in complete growth media for 24 hours.
Applicants have discovered that direct addition of the 12-LO products 12-S-HETE or 12-HPETE directly decreases cellular growth as reflected by decreased ^3H thymidine incorporation or DNA synthesis in the rat pure beta cell line RIN-M5F.

[3] = tested on: beta sub-unit of the human insulin receptor; experiment: Insulin receptor phosphorylation in rat-1-fibroblasts containing the human insulin receptor; format: cell-based; conditions: 12-HETE 10^−7M
Experimental: 7. Baicalein, a selective 12-LO inhibitor, can prevent glucose-induced insulin resistance. To perform these studies, applicants cultured rat-1-fibroblasts that have been engineered to contain the human insulin receptor for ten days in high glucose (25 mM). For the last 24 hours, the cells were cultured with 10^−6M baicalein. The marked bands represent the phosphorylated beta sub-unit of the human insulin receptor (FIG. 23). As the band becomes lighter, it represents reduced insulin action. Lane 1 represents the insulin receptor phosphorylation in normal glucose (5.5 mM) vs the reduced insulin action in lane 5 (25 mM glucose).

MO binding to HAEC = experiment: Monocyte binding to human aortic endothelial cells; format: cell-based; conditions: HAEC in 5.5 mM glucose, 10^−10M; control 66±6
Experimental: The rate of atherosclerosis is accelerated in humans with diabetes mellitus (DM). Applicants recently published evidence that high glucose (HG) exposure of human aortic endothelial cells (HAEC) selectively increases monocyte (MO) but not neutrophil binding (56). HG exposure to EC can increase arachidonic acid (AA) release and lipoxygenase (LO) production formation. In the current study, applicants evaluated the role of 12- and 15-LO products in MO binding to HAEC. Culture of HAEC in HG (25 mM) for two passages increased MO binding compared to cells maintained in 5.5 mM glucose (239±30 cells/field HG vs 111±7, p<0.01). Phenidone (10^−6M), an inhibitor of the 12-LO pathway (50 percent inhibition of HG-induced binding, p<0.05). […] 12(S)-HETE added to HAEC cultured in 5.5 mM glucose increased MO binding (66±6 cells/field control vs 114±4 12-HETE 10^−10M, p<0.01). […] In summary, (1) elevated glucose increases MO binding to HAEC and this effect can be reduced by blockade of the LO pathway; (2) 12 but not 15-LO products, can increase MO binding.

[4] = tested on: smooth muscle cell migration; conditions: cited from earlier work
VEGF protein in AIHSMC = experiment: VEGF protein expression in immortalized human aortic smooth muscle cell line (AIHSMC); format: cell-based; conditions: five hours
Experimental: FIG. 10 illustrates the effect of a 12-lipoxygenase product 12-HPETE on VEGF protein (42 kD) expression in an immortalized human aortic smooth muscle cell line (AIHSMC). The cells were serum starved for 24 hours and then placed in fresh medium along with 12-HPETE. Cells were incubated for five hours and VEGF protein was then identified in cell lysed as described in the legend to FIG. 8.

leukocyte 12-LO = leukocyte 12-LO (Sus scrofa, UniProt P16469); conditions: reference 55; cited from earlier work
[5] = tested on: 12-LO product formation in PVSMC; experiment: 12-HETE in PVSMC cultured in glucosamine (RIA); format: cell-based, porcine; conditions: glucosamine 7.5 mM
Experimental: Porcine vascular smooth muscles cells (PVSMC) were cultured in the presence of glucosamine (7.5 mM) for 24 hours. New media was then added with glucosamine (7.5 mM) for 25 minutes. The cells and media above the cells were collected and 12-HETE was measured using RIA. A very large increase in 12-HETE release into the media in cells cultured in glucosamine compared to those in normal glucose (6.48±1.2 pg/ml 12-HETE release in normal glucose vs. 20.6±3.6 pg/ml released in glucosamine n=4) was observed. Furthermore, cell associated 12-HETE was higher in glucosamine treated cells (735.9±67 pg/cell incubate normal glucose vs. 1225±112 pg in glucosamine).

[6] = tested on: leukocyte-type 12-LO in PVSMC; experiment: 12-LO activity, mRNA and protein in PVSMC; format: cell-based, porcine; conditions: 24 hours
Experimental: FIG. 14A illustrates the dose-dependent effect of the cytokine interleukin-1β on 12-LO mRNA expression in porcine aortic smooth muscle cells (PVSMC). Confluent PVSMC growth in normal glucose medium was serum depleted for 24 hours by placing in medium+0.2% BSA+0.4% FCS. This medium was then freshly replaced along with IL-1β and the cells incubated for a further 24 hours. At the end of the incubation, total RNA was extracted from the cells using RNA-STAT. This RNA was the subjected to reverse-transcriptase polymerase chain reaction (RT-PCR) to detect and quantitate leukocyte-type 12-LO mRNA (333 bp PCR product, upper panel) using our well established techniques. The expression of GAPDH mRNA 284 bp, lower panel) was used as an internal control for PCR and for quantitation.
FIG. 14B illustrates the effect of the cytokine IL-4 on 12-LO mRNA expression in PVSMC. The ells were treated for 24 hours with IL-4 and 12-LO mRNA quantitated as described in the legend to FIG. 14A. It is clearly seen that IL-4 also increases 12-LO mRNA expression similar to IL-1β.
FIG. 14C illustrates the effect of the cytokine IL-8 on 12-LO mRNA expression in PVSMC. The cells were treated for 24 hours with IL-8 and 12-LO mRNA quantitated as described under legend 14A.
(§2) The cells were cultured in DME (normal glucose) and treated for 24 hours±cytokines in medium containing 0.2% BSA and 0.4% serum. Intracellular 12-LO enzyme activity was measured by HPLC, leukocyte-type 12-LO protein expression by immunoblotting and 12-LO mRNA by a specific reverse transcriptase polymerase chain reaction (RT-PCR). […] Treatment with these cytokines (0.5-5 ng/ml) also led to an increase (1.4-2.5-fold) in 12-LO protein expression 72 kD). In addition, all three cytokines (2.5 ng/ml) could induce a significant increase in PVSMC DNA synthesis (1.280.08, 1.67±0.11 and 1.3±0.07 fold increase in ^3H thymidine incorporation with IL-1, -4, and -8 respectively, p<0.01).

PVSMC = PVSMC DNA synthesis (3H thymidine incorporation); format: cell-based, porcine; conditions: 2.5 ng/ml
Experimental: as §2

Chain of leukocyte 12-LO (P16469 whole entry): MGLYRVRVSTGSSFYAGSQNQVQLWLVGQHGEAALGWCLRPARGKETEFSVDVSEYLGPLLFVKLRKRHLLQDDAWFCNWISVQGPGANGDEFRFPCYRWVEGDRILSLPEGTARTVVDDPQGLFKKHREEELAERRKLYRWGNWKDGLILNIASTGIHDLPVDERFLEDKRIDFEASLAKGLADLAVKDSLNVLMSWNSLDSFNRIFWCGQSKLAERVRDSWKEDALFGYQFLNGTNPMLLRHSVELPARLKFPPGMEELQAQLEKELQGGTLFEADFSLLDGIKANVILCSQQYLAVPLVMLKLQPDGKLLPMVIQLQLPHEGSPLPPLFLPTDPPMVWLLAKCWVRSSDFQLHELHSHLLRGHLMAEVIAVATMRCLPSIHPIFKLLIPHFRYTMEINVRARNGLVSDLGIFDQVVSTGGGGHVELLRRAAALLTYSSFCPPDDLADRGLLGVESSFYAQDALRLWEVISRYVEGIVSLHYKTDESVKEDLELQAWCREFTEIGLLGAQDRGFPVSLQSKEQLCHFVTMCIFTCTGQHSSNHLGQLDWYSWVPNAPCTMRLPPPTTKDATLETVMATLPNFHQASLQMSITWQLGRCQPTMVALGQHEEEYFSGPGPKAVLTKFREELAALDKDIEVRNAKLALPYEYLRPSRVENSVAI

basal insulin receptor phosphorylation [3]: did not directly alter
insulin-induced receptor phosphorylation of the beta subunit [3]: markedly reduced
Compound: CCCCC/C=C\C[C@@H](O)/C=C/C=C\C/C=C\CCCC(=O)O [12-HETE, 12-Hydroxyeicosatetraenoic Acid]
stimulation of ERK activity (ERK): biphasic stimulation
stimulation of JNK activity, first peak (JNK; 12-HETE 10^−7M, 30 minutes): 2-3 fold
stimulation of JNK activity, second peak (JNK; 12-HETE 10^−7M, 3 hours): 2.5-5 fold
lowest concentration stimulating JNK activity (JNK; FIG. 29): 10^−9 M
JAK activity (JAK1 and JAK2): increased JAK activity
VEGF protein expression ([1]; MCF-7, 24 hours): more potent than EGF
VEGF protein expression ([1]; MCF-7 and MDA MB, 12-HETE 10^−7M and 10^−6M): increases VEGF protein expression
increase in VEGF secretion (EIA) [2]: 1.4 fold
expression of VEGF protein and mRNA ([2]; 12-HETE 10^−8M and 10^−7M, 4 hours, NG and HG): increased the expression
3H-thymidine incorporation (DNA synthesis) (RINm5F cells): reduced
MO binding (MO binding to HAEC): 114±4 cells/field
lowest concentration leading to smooth muscle cell migration [4]: 10^−12 M

Compound: CCCCC/C=C\CC(/C=C/C=C\C/C=C\CCCC(=O)O)OO (stereo not shown) [12-HPETE, 12-Hydroperoxyeicosatetraenoic Acid]
VEGF protein (42 kD) expression (VEGF protein in AIHSMC): causes an increase
3H-thymidine incorporation (DNA synthesis) (RINm5F cells): reduced

Compound: C=C[C@H](O)C#CC#CC/C=C\CCCCCCC [Panaxynol]
inhibition of leukocyte 12-LO (leukocyte 12-LO): relatively selective inhibitor

Compound: N[C@H]1C(O)O[C@H](CO)[C@@H](O)[C@@H]1O (stereo partly shown) [glucosamine]
12-HETE release into the media ([5]; normal glucose 6.48±1.2): 20.6 ± 3.6 pg/mL
cell associated 12-HETE ([5]; normal glucose 735.9±67 pg/cell incubate): 1225 ± 112 pg

Compound: IL-8: cytokine IL-8
increase in 12-HETE HPLC peak (12-LO enzyme activity) ([6]; 2.5 ng/ml): 36%
12-LO mRNA expression in PVSMC ([6]; FIG. 14): dose-dependent increase
increase in 3H thymidine incorporation (PVSMC): 1.3±0.07 fold
